# Test results published in patent publication US8148388B2, “2,4 (4,6) pyrimidine derivatives” (Janssen Pharmaceutica, N.V., priority 2004, dated 2012).
# pIC50: −log10 of the molar value.
# What was measured:
# Assay type in all cases: biochemical
# EGFR-kinase domain = target: T1, EGFR-kinase domain (Homo sapiens, UniProt P00533); experiment: In vitro inhibition of EGFR (Flash Plate assay); settings: full dose response 1.10^−6M to 1.10^−10M, read-out: C12 EGFR flash Score
# T1 construct: 0.5 μg EGFR-kinase domain/well
# T1 sequence (P00533 712-979 limits assumed): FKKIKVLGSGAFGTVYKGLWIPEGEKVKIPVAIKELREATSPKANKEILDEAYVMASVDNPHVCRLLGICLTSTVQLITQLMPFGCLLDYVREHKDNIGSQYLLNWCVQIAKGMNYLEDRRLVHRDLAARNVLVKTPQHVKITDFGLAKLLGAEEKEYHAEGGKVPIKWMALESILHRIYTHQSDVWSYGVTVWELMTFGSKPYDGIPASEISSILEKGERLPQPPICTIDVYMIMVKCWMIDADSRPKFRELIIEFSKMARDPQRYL
# Experimental: The in vitro inhibition of EGFR was assessed using either the Flash Plate technology or the glass-fiber filter technology as described by Davies, S. P. et al., Biochem J. (2000), 351; p. 95-105. The Flash Plate technology is generally described by B. A. Brown et al. in High Throughput Screening (1997), p. 317-328. Editor(s): Devlin, John P. Publisher: Dekker, New York, N.Y.
# In the Flash Plate EGFR kinase reaction assay, a kinase substrate consisting of biotinylated poly(L-glutamic acid-L-tyrosine) (poly(GT)biotin), is incubated with the aforementioned protein in the presence of (^33P) radiolabeled ATP. (^33P) phosphorylation of the substrate is subsequently measured as light energy emitted using a streptavidin-coated Flash Plate (PerkinElmer Life Sciences) by trapping and quantifying the binding of the biotin tagged and radiolabeled substrate.
# The EGFR kinase reaction is performed at 30° C. for 60 minutes in a 96-well microtiter FlashPlate (PerkinElmer Life Sciences). For each of the tested compounds a full dose response 1.10^−6M to 1.10^−10M has been performed. IRESSA® and Tarceva™ (erlotinib) were used as reference compounds. The 100 μl reaction volume contains 54.5 mM TrisHCl pH 8.0, 10 mM MgCl2, 100 μM Na3VO4, 5.0 μM unlabeled ATP, 1 mM DTT, 0.009% BSA, 0.8 μCi AT^33P, 0.35 μg/well poly(GT)biotin and 0.5 μg EGFR-kinase domain/well.
# The reaction is stopped by aspirating the reaction mixture and washing the plate 3× with 200 μl wash/stop buffer (PBS+100 mM EDTA). After the final wash step 200 μl of wash/stop buffer was added to each well and the amount of phosphorylated (^33P) Poly(GT)biotin determined by counting (30 sec/well) in a microtiterplate scintillation counter.
# Yes (h) = Yes (h) (Homo sapiens, UniProt P07947); experiment: Yes human kinase assay (glass-fiber filter); settings: test concentration of 10^−6M; read-out: C11 score (inhibition of Yes human)
# Yes (h), sequence (P07947 whole entry): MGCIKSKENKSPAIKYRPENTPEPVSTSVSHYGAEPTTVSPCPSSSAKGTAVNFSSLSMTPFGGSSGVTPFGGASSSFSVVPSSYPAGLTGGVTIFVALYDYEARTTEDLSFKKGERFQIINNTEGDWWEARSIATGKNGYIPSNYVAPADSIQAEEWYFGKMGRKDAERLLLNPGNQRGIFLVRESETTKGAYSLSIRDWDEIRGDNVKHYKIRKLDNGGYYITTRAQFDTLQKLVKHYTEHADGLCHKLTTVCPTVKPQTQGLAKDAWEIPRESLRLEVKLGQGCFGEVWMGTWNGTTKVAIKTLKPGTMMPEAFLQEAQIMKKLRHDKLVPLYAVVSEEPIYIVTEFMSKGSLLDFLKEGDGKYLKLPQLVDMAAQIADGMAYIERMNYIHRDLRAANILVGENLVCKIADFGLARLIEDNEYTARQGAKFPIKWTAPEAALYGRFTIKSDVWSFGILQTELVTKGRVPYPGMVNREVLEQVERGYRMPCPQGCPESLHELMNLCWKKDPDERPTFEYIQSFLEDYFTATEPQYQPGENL
# Experimental: (§1) In the glass-fiber filter technology the activity of the kinase of interest is measured using an appropriate substrate that is incubated with the aforementioned kinase protein in the presence of (^33P) radiolabeled ATP. (^33P) Phosphorylation of the substrate is subsequently measured as radioactivity bound on a glass fiber-filter.
# (§2) All kinases are pre-diluted to a 10× working concentration prior to addition into the assay. The composition of the dilution buffer for each kinase is detailed below.
# (§3) In a final reaction volume of 25 μl, Yes (h) (5-10 mU) is incubated with 8 mM MOPS pH 7.0, 0.2 mM EDTA, 0.1 mg/ml poly(Glu, Tyr) 4:1, 10 mM MgAcetate and [γ-^33P-ATP] (specific activity approx. 500 cpm/μmol, concentration as required). The reaction is initiated by the addition of the MgATP mix. After incubation for 40 minutes at room temperature, the reaction is stopped by the addition of 5 μl of a 3% phosphoric acid solution. 10 μl of the reaction is then spotted onto a Filtermat A and washed three times for 5 minutes in 75 mM phosphoric acid and once in methanol prior to drying and scintillation counting.
# Flt3 (h) = Flt3 (h) (Homo sapiens, UniProt P36888); experiment: Flt3 human kinase assay (glass-fiber filter); settings: test concentration of 10^−6M; read-out: C6 score (inhibition of Flt3 human)
# Flt3 (h), sequence (P36888 27-993): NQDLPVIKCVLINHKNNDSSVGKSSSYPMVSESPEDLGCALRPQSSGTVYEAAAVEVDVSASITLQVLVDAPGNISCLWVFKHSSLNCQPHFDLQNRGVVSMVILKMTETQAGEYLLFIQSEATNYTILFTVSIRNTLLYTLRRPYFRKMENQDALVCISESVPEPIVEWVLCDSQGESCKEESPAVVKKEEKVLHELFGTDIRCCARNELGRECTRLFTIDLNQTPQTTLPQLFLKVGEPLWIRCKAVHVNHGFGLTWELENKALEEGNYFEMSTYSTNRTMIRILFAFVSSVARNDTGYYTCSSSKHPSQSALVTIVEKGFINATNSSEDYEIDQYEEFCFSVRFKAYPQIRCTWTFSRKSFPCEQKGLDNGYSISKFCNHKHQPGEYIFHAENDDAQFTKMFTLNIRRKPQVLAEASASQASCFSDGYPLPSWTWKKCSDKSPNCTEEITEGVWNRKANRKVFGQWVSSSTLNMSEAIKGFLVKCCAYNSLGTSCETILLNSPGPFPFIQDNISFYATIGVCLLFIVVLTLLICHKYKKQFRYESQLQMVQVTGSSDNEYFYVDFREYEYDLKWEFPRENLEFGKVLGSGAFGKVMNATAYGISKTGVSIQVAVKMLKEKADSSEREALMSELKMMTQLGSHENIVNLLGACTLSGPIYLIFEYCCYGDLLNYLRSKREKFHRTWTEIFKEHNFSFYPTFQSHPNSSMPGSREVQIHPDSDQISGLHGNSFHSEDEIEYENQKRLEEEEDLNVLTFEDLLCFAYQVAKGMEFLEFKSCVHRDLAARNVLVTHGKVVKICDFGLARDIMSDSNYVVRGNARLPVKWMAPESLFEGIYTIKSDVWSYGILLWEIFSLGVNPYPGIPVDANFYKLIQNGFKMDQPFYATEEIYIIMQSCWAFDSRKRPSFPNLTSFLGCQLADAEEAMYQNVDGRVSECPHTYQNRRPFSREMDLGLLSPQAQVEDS
# Experimental: (§4) The in vitro inhibition of a panel of kinases was assessed using either the glass-fiber filter technology as described by Davies, S. P. et al., Biochem J. (2000), 351; p. 95-105.
# as §1, §2
# as §3, with “Flt3” for “Yes”, “50 μM […],” for “0.1 mg/ml poly(Glu, Tyr) 4:1,”, “cpm/pmol,” for “cpm/μmol,”, “P30 filtermat” for “Filtermat A”
# Lyn (h) = Lyn (h) (Homo sapiens, UniProt P07948); experiment: Lyn human kinase assay (glass-fiber filter); settings: test concentration of 10^−6M; read-out: C10 score (inhibition of Lyn human)
# Experimental: as §1, §2
# In a final reaction volume of […] (h) (5-10 mU) is incubated with 50 mM Tris pH 7.5, 0.1 mM EGTA, 0.1 mM Na3VO4, 0.1% O-mercaptoethanol, 0.1 mg/ml poly(Glu, Tyr) 4:1, 10 mM MgAcetate and [γ-^33P-ATP] (specific activity approx. 500 cpm/pmol, concentration as required). The reaction is initiated by the addition of the MgATP mix. After incubation for 40 minutes at room temperature, the reaction is stopped by the addition of 5 μl of a 3% phosphoric acid solution. 10 μl of the reaction is then spotted onto a Filtennat A and washed three times for 5 minutes in 75 mM phosphoric acid and once in methanol prior to drying and scintillation counting.
# cSRC (h) = cSRC (h) (Homo sapiens, UniProt P12931); experiment: cSRC human kinase assay (glass-fiber filter); settings: test concentration of 10^−6M; read-out: C3 score (inhibition of cSRC human)
# cSRC (h), sequence (P12931 whole entry): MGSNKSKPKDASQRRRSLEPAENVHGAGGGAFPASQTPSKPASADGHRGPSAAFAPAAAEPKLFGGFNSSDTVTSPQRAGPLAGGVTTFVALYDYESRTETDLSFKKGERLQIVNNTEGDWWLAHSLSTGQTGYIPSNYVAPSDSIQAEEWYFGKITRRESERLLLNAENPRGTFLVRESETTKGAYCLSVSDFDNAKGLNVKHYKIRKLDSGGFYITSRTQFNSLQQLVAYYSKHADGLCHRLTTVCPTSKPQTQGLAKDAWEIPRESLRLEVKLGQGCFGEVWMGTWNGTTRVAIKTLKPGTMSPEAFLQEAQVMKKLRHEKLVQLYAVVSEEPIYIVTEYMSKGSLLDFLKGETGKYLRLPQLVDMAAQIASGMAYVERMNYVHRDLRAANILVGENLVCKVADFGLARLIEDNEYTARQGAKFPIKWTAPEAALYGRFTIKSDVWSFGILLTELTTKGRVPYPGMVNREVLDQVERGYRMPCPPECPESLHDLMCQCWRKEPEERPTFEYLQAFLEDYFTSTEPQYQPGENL
# Experimental: (§5) The in vitro inhibition of a panel of kinases was assessed using either the glass-fiber filter technology as described by Davies, S. P. et al., Biochem J. […] In the glass-fiber filter technology the activity of the kinase of interest is measured using an appropriate substrate that is incubated with the aforementioned kinase protein in the presence of (^33P) radiolabeled ATP. (^33P) Phosphorylation of the substrate is subsequently measured as radioactivity bound on a glass fiber-filter. All kinases are pre-diluted to a 10× working concentration prior to addition into the assay. The composition of the dilution buffer for each kinase is detailed below. […] The reaction is initiated by the addition of the MgATP mix. […] 10 μl of the reaction is then spotted onto a P30 filtermat and washed three times for 5 minutes in 75 mM phosphoric acid and once in methanol prior to drying and scintillation counting.
# Fms (h) = Fms (h) (Homo sapiens, UniProt P07333); experiment: Fms human kinase assay (glass-fiber filter); settings: test concentration of 10^−6M; read-out: C7 score (inhibition of Fms human)
# Fms (h), sequence (P07333 20-972): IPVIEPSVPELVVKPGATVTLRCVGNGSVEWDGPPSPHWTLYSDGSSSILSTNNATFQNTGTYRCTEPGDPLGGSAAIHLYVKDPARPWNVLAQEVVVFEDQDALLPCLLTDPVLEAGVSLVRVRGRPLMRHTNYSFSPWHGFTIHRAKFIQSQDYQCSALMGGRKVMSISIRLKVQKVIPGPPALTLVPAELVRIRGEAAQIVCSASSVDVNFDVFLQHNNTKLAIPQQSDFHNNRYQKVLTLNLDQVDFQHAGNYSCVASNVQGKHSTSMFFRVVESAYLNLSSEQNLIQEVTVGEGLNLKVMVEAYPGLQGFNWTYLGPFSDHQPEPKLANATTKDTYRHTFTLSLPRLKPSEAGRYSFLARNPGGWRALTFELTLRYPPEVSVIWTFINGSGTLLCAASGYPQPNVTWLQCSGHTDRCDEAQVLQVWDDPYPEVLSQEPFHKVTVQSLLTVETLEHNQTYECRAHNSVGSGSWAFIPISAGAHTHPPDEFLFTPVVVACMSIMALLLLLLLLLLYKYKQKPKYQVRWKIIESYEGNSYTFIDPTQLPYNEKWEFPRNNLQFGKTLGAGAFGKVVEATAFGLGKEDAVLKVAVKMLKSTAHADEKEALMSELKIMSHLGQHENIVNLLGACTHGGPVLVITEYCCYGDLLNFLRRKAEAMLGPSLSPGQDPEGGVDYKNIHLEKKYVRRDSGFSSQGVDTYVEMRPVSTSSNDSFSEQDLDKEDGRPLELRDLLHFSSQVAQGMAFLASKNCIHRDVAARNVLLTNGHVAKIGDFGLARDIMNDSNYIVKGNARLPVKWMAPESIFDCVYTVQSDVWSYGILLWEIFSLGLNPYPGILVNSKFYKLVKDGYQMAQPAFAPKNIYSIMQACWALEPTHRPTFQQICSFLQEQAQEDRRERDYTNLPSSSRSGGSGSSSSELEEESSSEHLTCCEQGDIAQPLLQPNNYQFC
# Experimental: as §4, §1, §2
# as §3, with “Fms” for “Yes”, “250 μM […],” for “0.1 mg/ml poly(Glu, Tyr) 4:1,”, “cpm/pmol,” for “cpm/μmol,”, “P30 filtermat” for “Filtermat A”
# Lck (h) = Lck (h) (Homo sapiens, UniProt P06239); experiment: Lck human kinase assay (glass-fiber filter); settings: test concentration of 10^−6M; read-out: C9 score (inhibition of Lck human)
# Lck (h), sequence (P06239 whole entry): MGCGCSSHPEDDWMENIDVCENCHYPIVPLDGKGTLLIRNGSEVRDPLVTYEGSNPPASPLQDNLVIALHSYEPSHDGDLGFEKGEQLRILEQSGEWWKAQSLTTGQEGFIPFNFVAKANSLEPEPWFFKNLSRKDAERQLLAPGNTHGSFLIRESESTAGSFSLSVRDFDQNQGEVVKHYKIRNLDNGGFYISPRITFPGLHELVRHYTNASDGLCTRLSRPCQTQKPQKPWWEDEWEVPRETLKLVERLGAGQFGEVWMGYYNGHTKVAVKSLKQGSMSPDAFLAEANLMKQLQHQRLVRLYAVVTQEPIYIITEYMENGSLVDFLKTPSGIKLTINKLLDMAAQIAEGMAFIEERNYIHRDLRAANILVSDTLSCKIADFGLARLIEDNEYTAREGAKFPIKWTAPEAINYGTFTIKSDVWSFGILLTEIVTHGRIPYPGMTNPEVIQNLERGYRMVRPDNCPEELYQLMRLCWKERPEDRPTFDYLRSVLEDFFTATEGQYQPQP
# Experimental: as §5, with “below. [table]” for “below.”
# Abl (h) = Abl (h) (Homo sapiens, UniProt P00519); experiment: Abl human kinase assay (glass-fiber filter); settings: test concentration of 10^−6M; read-out: C1 score (inhibition of Abl human)
# Abl (h), sequence (P00519 whole entry): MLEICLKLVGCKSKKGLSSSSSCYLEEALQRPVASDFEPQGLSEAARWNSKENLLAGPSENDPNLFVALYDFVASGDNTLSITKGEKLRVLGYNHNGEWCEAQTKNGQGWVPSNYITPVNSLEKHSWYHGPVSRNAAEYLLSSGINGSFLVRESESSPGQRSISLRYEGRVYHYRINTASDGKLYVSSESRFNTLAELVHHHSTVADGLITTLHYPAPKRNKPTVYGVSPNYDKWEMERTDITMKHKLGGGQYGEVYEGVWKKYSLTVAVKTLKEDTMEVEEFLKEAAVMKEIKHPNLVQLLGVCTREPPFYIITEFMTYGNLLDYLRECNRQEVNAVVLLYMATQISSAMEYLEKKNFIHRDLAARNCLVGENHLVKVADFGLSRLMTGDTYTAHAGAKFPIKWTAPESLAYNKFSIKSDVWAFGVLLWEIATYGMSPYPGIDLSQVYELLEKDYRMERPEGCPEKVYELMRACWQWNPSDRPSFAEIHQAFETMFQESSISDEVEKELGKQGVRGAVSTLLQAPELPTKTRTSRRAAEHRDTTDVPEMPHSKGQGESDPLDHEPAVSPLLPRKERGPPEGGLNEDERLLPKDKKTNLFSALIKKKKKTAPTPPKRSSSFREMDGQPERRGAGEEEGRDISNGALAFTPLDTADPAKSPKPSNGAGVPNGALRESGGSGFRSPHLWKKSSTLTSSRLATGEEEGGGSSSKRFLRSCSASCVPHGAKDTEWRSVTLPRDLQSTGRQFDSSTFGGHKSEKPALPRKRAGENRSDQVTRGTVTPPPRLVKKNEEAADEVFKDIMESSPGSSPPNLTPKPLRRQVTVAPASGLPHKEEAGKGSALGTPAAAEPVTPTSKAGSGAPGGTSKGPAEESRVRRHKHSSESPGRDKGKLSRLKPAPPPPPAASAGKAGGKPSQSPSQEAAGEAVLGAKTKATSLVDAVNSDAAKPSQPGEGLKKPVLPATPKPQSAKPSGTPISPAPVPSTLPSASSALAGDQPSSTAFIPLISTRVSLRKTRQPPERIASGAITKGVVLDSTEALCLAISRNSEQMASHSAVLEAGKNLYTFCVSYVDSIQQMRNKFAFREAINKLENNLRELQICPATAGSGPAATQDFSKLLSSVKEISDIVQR
# Experimental: as §1, §2
# (specific activity approx. 500 cpm/pmol, concentration as required). The reaction is initiated by the addition of the MgATP mix. After incubation for 40 minutes at room temperature, the reaction is stopped by the addition of 5 μl of a 3% phosphoric acid solution. 10 μl of the reaction is then spotted onto a P30 filtermat and washed three times for 5 minutes in 75 mM phosphoric acid and once in methanol prior to drying and scintillation counting.
Structure (SMILES),pIC50 (EGFR-kinase domain),also measured
COc1ccc2cc1OCCNC(=O)C1CCCCN1Cc1cc(ccc1Cl)Nc1cc(ncn1)N2 (racemic) [Compound 145],5.00 to 6.00,
"O=C1NCc2cccc(c2)Nc2ccnc(n2)Nc2cccc1c2 [Compound 24, 2,4,8,15,23-pentaazatetracyclo[15.3.1.1~3,7~.1~9,13~]tricosa-1(21),3,5,7(23),9,11,13(22),17,19-nonaen-16-one]",,inhibition at 1 µM (Yes (h)): 10 to 30%; inhibition at 1 µM (Flt3 (h)): 60 to 80%; inhibition at 1 µM (Lyn (h)): 10 to 30%; inhibition at 1 µM (cSRC (h)): 10 to 30%; inhibition at 1 µM (Fms (h)): 10 to 30%; inhibition at 1 µM (Lck (h)): 30 to 60%; inhibition at 1 µM (Abl (h)): 30 to 60%
"O=C1COc2cccc(c2)Nc2nccc(n2)Nc2cccc(c2)OCCCN1 [Compound 29, 14,21-dioxa-2,4,8,18,28-pentaazatetracyclo[20.3.1.1~3,7~.1~9,13~]octacosa-1(26),3,5,7(28),9,11,13(27),22,24-nonaen-19-one]",,inhibition at 1 µM (Yes (h)): 60 to 80%; inhibition at 1 µM (Flt3 (h)): > 80%; inhibition at 1 µM (cSRC (h)): 10 to 30%; inhibition at 1 µM (Fms (h)): 10 to 30%; inhibition at 1 µM (Lck (h)): 30 to 60%
"O=C1CCCCCCNC(=O)c2cccc(c2)Nc2cc(ncn2)Nc2cccc(c2)CN1 [Compound 57, 2,4,6,8,15,23-hexaazatetracyclo[23.3.1.1~3,7~.1~9,13~]hentriaconta-1(29),3,5,7(31),9,11,13(30),25,27-nonaene-14,22-dione]",,inhibition at 1 µM (Flt3 (h)): 30 to 60%
CC(C)C1NC(=O)c2cccc(c2)Nc2cc(ncn2)Nc2cccc(c2)CNC(=O)CNC1=O (stereo not shown) [Compound 60],,inhibition at 1 µM (Yes (h)): 10 to 30%; inhibition at 1 µM (Fms (h)): 10 to 30%
O=C1CNC(=O)CNC(=O)c2cccc(c2)Nc2cc(ncn2)Nc2cccc(c2)CN1 [Compound 61],,inhibition at 1 µM (Yes (h)): 10 to 30%; inhibition at 1 µM (Fms (h)): 60 to 80%
COc1ccc2cc1OCCNC(=O)CCCN(C)Cc1cc(ccc1Cl)Nc1cc(ncn1)N2 [Compound 111],5.00 to 6.00,
CCN1CCC(=O)NCCOc2cc(ccc2OC)Nc2cc(ncn2)Nc2ccc(Cl)c(c2)C1 [Compound 113],5.00 to 6.00,
COc1ccc2cc1OCCNC(=O)CCN1CCC(CC1)N(C)Cc1cc(ccc1Cl)Nc1cc(ncn1)N2 [Compound 127],5.00 to 6.00,
CCN1CCNC(=O)C(CC2CCCCC2)NC(=O)COc2ccc(cc2)Nc2cc(ncn2)Nc2cccc(c2)C1 (stereo not shown) [Compound 135],5.00 to 6.00,
CCN1CCNC(=O)C2CN(CCO2)C(=O)COc2ccc(cc2)Nc2cc(ncn2)Nc2cccc(c2)C1 (stereo not shown) [Compound 136],> 6.00,
COc1ccc2cc1OCCNC(=O)C1CCCN(C1)C(=O)COc1ccc(cc1)Nc1cc(ncn1)N2 (stereo not shown) [Compound 140],5.00 to 6.00,
COc1ccc2cc1OCCNC(=O)CC(CC(C)C)NC(=O)COc1ccc(cc1)Nc1cc(ncn1)N2 (stereo not shown) [Compound 141],5.00 to 6.00,
COc1ccc2cc1OCCNC(=O)C(CCSC)NC(=O)COc1cccc(c1)Nc1cc(ncn1)N2 (stereo not shown) [Compound 173],5.00 to 6.00,
COCC1NC(=O)COc2cccc(c2)Nc2cc(ncn2)Nc2cccc(c2)OCCCCCNC1=O (stereo not shown) [Compound 179],5.00 to 6.00,
O=C1COc2cccc(c2)Nc2cc(ncn2)Nc2cccc(c2)OCCCCCNC(=O)C(Cc2cccnc2)N1 (stereo not shown) [Compound 180],5.00 to 6.00,
COc1ccc2cc1OCCNC(=O)C1CN(CCC1O)Cc1cc(ccc1Cl)Nc1cc(ncn1)N2 (stereo not shown) [Compound 182],5.00 to 6.00,
CCN1CC(=O)NCCOc2cc(ccc2OC)Nc2cc(ncn2)Nc2ccc(Cl)c(c2)C1 [Compound 183],5.00 to 6.00,
CN1Cc2cccc(c2)Nc2cc(ncn2)Nc2ccccc2OCCCCCNC(=O)CCN2CCC1CC2 [Compound 186],5.00 to 6.00,
CCN1CC(=O)NCCCCCOc2ccccc2Nc2cc(ncn2)Nc2cccc(c2)C1 [Compound 190],5.00 to 6.00,
O=C1CCN(CCN2CCOCC2)Cc2cccc(c2)Nc2cc(ncn2)Nc2cccc(c2)OCCCCN1 [Compound 195],5.00 to 6.00,
CN1Cc2cccc(c2)Nc2cc(ncn2)Nc2cccc(c2)OCCCCNC(=O)CCN2CCC1CC2 [Compound 196],5.00 to 6.00,
